Key:
HGFR autophosphorylation = molecular target: T1, HGFR autophosphorylation (Homo sapiens, UniProt P08581); assay: Inhibitory activity against the HGFR autophosphorylation using ELISA; type: cell-based; details: MKN-45 cells, 1 hr treatment, read-out: IC50 (concentration necessary to inhibit HGFR autophosphorylation activity by 50%)
T1 construct: endogenous in cells; host or cells: MKN-45 human gastric cancer cells
Protocol: Human gastric cancer cells (MKN-45) were suspended in a 1% FBS-containing RPMI1640 medium (purchased from Sigma). The cell suspension (1×10^5 cells/ml) was put in a 96-well plate for cell culture (purchased from NUNC, Production No. 167008) at 0.1 ml/well, and then cultured in a 5% CO2 incubator (37° C.) overnight. After the culture, from each well was removed the supernatant solution, followed by adding 0.05 ml of a 1% FBS-containing RPMI1640 medium. Then, the well was supplied with 0.05 ml of the test substance dissolved in dimethyl sulfoxide (diluted with a 1% FBS-containing RPMI1640 medium), followed by culturing in a 5% CO2 incubator (37° C.) for 1 hr. From each well was removed the supernatant, and each well was washed with 150 μl of PBS, followed by adding 100 μl of a lysis buffer (50 mM Hepes (pH 7.4), 150 mM NaCl, 10% (v/v) glycerol, 1% Triton X-100, 1.5 mM MgCl2, 1 mM EDTA (pH 8.0), 100 mM NaF, 1 mM PMSF, 10 μg/ml Aprotinin, 50 μg/ml Leupeptin, 1 μg/ml Pepstatin A and 1 mM Na3VO4). The plate was shaken at 4° C. for 1 hr to prepare the cell extract.
To a 96-well plate for ELISA (purchased from COSTAR, Production No. 3369) was added 50 μl of 60 mM bicarbonate buffer (pH 9.6) containing 50 μg/ml of an anti-phosphotyrosine antibody (PY20, purchased from Transduction Laboratory, Production No. P-11120). The plate was incubated at 4° C. overnight.
Each well of the plate prepared in 2. was washed three times with 200 μl of PBS, and supplied with 150 μl of 3% BSA/PBS, followed by incubating at room temperature for 2 hrs. Each well was washed three times with 200 μl of PBS, and supplied with 50 μl of the above cell extract, followed by incubating at 4° C. overnight. After the incubation, each well was washed three times with 250 μl of a washing solution (0.1% BSA, 20 mM Tris-HCl (pH 7.6), 137 mM NaCl, and 0.05% Tween-20), and supplied with 70 μl of anti-HGFR antibody (h-Met(C-12), purchased from Santa Cruz, Production No. sc-10) 2,000-fold diluted with a reaction solution (1% BSA, 20 mM Tris-HCl (pH 7.6), 137 mM NaCl and 0.05% Tween-20), followed by incubating at room temperature for 1 hr. The well was washed three times with 250 μl of the washing solution, and supplied with 70 μl of peroxidase-labelled anti-rabbit IgG antibody (purchased from Cell Signaling, Production No. 7074) 2,000-fold diluted with the reaction solution, followed by incubating at room temperature for 1 hr. Each well was washed three times with 250 μl of the washing solution, and supplied with 70 μl of TMB Membrane Peroxidase Substrate (purchased from Funakoshi, Production No. 50-5077-03), followed by incubating at room temperature for 10 min. Each well was supplied with 70 μl of 1 M phosphoric acid, and using the Plate Reader MTP-500 (Corona Electric), the absorbance of the well was instantly determined at a measurement wavelength of 450 nm. While defining the absorbance of a well supplied with the cell extract having no test substance as 100% HGFR autophosphorylation activity, and the absorbance of a well supplied with 50 μl of the lysis buffer as 0% HGFR autophosphorylation activity, the HGFR autophosphorylation activity (%) was calculated for each well. The concentration of the test substance was changed by several levels to calculate HGFR autophosphorylation activities (%) in respective cases, and to calculate the concentration (IC50) of the test substance necessary to inhibit HGFR autophosphorylation activity by 50%.

[1] = tested on: Human gastric cancer cells (MKN-45); assay: Inhibitory activity against the proliferation of human gastric cancer cells (MKN-45); type: cell-based; details: 72 h, MKN-45, 1% FBS RPMI1640, 3 days, Cell Counting Kit-8, read-out: IC50 (concentration necessary to inhibit the cell proliferation by 50%)
Protocol: Human gastric cancer cells (MKN-45) were suspended in a 1% FBS-containing RPMI1640 medium (purchased from Sigma). The cell suspension (1×10^4 cells/ml) was added in a 96-well plate for cell culture (purchased from NUNC, Production No. 167008) at 0.1 ml/well, and then cultured in a 5% CO2 incubator (37° C.) overnight. After the culture, each well was supplied with 0.1 ml of a test substance diluted with a 1% FBS-containing RPMI1640 medium, followed by culturing in a 5% CO2 incubator (37° C.) for 3 days. After the culture, each well was supplied with 10 μl of Cell Counting Kit-8 (purchased from DOJINDO, Production No. 343-07623), followed by incubation in a 5% CO2 incubator (37° C.) for about 1.5 hrs. After the incubation, using the Plate Reader MTP-500 (Corona Electric), the absorbance of each well was determined at a measurement wavelength of 450 nm and a reference wavelength of 660 nm. The ratio (%) of absorbance of each well supplied with a test substance to absorbance of the well supplied with no test substance was calculated, and the ratio was used to calculate the concentration (IC50) of the test substance necessary to inhibit the cell proliferation by 50%.

T1 sequence (P08581 25-1390): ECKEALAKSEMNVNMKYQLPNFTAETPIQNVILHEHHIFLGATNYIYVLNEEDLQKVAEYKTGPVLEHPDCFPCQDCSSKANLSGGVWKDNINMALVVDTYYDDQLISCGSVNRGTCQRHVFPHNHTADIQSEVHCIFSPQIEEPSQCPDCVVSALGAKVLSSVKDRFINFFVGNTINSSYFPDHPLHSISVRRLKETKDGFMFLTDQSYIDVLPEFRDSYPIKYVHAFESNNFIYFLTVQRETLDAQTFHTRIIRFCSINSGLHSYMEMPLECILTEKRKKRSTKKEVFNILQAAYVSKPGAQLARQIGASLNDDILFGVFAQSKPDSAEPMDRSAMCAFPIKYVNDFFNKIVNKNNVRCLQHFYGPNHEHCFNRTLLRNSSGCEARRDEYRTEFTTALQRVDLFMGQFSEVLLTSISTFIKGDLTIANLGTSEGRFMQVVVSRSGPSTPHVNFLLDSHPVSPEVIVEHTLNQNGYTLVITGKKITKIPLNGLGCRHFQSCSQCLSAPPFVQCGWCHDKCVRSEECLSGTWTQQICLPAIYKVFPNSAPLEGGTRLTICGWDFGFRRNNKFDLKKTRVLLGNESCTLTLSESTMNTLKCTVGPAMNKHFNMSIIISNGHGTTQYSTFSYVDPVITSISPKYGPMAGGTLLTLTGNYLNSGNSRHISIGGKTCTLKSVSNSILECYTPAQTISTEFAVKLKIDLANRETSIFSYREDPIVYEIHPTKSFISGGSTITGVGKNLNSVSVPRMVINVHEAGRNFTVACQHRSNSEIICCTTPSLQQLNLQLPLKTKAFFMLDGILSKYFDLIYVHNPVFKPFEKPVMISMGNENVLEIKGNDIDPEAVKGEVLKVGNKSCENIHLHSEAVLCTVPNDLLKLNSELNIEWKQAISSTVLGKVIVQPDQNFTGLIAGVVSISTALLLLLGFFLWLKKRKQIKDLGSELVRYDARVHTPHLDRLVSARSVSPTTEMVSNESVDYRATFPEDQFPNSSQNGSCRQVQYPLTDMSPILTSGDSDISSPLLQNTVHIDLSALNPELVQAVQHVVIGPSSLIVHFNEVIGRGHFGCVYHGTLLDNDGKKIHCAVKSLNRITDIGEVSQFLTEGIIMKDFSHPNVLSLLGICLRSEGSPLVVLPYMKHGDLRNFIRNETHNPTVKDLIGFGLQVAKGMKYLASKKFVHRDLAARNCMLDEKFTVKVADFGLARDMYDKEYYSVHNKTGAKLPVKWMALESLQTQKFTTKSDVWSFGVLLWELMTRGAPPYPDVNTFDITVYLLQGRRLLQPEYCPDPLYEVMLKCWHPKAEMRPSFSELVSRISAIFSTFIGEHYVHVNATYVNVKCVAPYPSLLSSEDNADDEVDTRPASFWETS

- IC50 (HGFR autophosphorylation): 350 nM
- IC50 [1]: 140 nM
Structure (SMILES): O=C(Cc1ccccc1)NC(=O)Nc1ccc(Oc2ccnc(NC(=O)N3CCC(N4CCCC4)CC3)c2)c(F)c1 [Example 45, 4-{2-Fluoro-4-[3-(2-phenylacetyl)ureido]phenoxy}-2-{[4-(pyrrolidin-1-yl)piperidin-1-yl]carbonylamino}pyridine]
